Assay results: patent US8008007B2, “S-adenosyl-L-methionine analogs with extended activated groups for transfer by methyltransferases” (RWTH Aachen, priority 2005, dated 2011)

Assays:
Type in all cases: biochemical
M.TaqI [1] = molecular target: T1, M.TaqI (Thermus aquaticus, UniProt P14385); test: DNA protection assay with M.TaqI (wild-type) on phage lambda DNA; conditions: 1 μg phage lambda DNA, cofactor 300 μM, 60° C. for 4 h, then R.TaqI; 1 u = minimal enzyme amount fully protecting 1 μg DNA
T1 construct: made in house
T1 sequence (P14385 whole entry): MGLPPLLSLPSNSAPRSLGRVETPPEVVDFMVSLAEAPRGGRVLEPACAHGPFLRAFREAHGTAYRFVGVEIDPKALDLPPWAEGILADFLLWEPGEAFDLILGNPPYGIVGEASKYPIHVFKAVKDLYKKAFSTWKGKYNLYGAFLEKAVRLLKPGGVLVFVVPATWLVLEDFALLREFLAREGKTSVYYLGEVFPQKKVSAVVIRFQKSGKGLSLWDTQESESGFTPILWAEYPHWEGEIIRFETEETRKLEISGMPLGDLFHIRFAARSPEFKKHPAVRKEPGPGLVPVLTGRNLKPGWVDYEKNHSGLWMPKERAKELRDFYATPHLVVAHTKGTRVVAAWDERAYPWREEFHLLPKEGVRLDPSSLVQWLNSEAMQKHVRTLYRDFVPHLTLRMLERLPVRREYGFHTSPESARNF
Description: (§1) Transfer kinetics of the activated ethyl (—CH2CH3), propyl (—CH2CH2CH3), prop-2-enyl (—CH2CH═CH2), prop-2-ynyl (—CH2C≡CH), but-2-ynyl (—CH2C≡CCH3), pent-2-ynyl (—CH2C≡CCH2CH3) and benzyl group (—CH2C6H5) from cofactors 3-9 by the DNA adenine-N6 methyltransferase M.TaqI and its variant V21 G, the DNA cytosine-C5 methyltransferase M.HhaI and its variant Q82A, the DNA cytosine-N4 methyltransferase M.BcnIB and the DNA cytosine-C5 methyltransferase M.SssI variant Q142A to phage lambda DNA (48502 base pairs) were investigated using a DNA protection assay. This assay makes use of the fact that DNA methyltransferase-catalyzed modifications of nucleobases within the recognition sequences of restriction endonucleases can protect the DNA against fragmentation by these enzymes. […] Unmodified DNA containing 5′-TCGA-3′ recognition sequences is readily fragmentated by R.TaqI. After DNA modification by M.TaqI in the presence of a cofactor with an activated group Z—R modified 5′-TCGA^Z—R-3′ sequences are formed and, as a result, R.TaqI is unable to fragment the modified DNA. Occurrence of fragmentation is then analyzed by agarose gel electrophoresis.
(§2) By varying the amounts of DNA methyltransferase, this assay is used to investigate the enzymatic activities of the different DNA methyltransferases with cofactors 3-9 and compare them to the enzymatic activities with the natural cofactor 1. The minimal amount of DNA methyltransferase needed to fully protect 1 μg of phage lambda DNA against restriction endonuclease fragmentation under the given experimental conditions is defined as one enzyme unit (u).
(§3) Afterwards a solution (30 μL) containing R.TaqI restriction endonuclease (40 u, MBI Fermentas), bovine serum albumin (0.166 mg/mL) and buffer (16.6 mM Tris hydrochloride, 166 mM sodium chloride, 8.3 mM magnesium chloride, pH 8.0) was added to each dilution and incubation at 60-65° C. was continued for 15 min. Loading buffer (10 μL, 0.25% bromphenol blue, 30% glycerol) was added to each sample, and aliquots (12 μL) were analyzed for the degree of protection by agarose gel (1%) electrophoresis. Parallel control experiments were performed with phage lambda DNA in the absence of M.TaqI and in the presence of M.TaqI (200 ng).
Afterwards a solution (10 μL) containing R.TaqI restriction endonuclease (10 u, MBI Fermentas), bovine serum albumin (0.1 mg/mL) and buffer (33 mM Tris acetate, 66 mM potassium acetate, 10 mM magnesium acetate, pH 7.9) was added to each dilution and incubation was continued at 65° C. for 1 h. […] Parallel control experiments were performed with phage lambda DNA in the absence of M.TaqI and in the presence of M.TaqI (180 ng).

M.HhaI = molecular target: T2, M.HhaI (Haemophilus parahaemolyticus, UniProt P05102); test: DNA protection assay with M.HhaI (wild-type) on phage lambda DNA; conditions: 1.16 μg phage lambda DNA, cofactor 300 μM, 37° C. for 4 h, then R.Hin6I; pH 7.4 (pH 6.0 for cofactor 6)
T2 construct: made in house
T2 sequence (P05102 whole entry): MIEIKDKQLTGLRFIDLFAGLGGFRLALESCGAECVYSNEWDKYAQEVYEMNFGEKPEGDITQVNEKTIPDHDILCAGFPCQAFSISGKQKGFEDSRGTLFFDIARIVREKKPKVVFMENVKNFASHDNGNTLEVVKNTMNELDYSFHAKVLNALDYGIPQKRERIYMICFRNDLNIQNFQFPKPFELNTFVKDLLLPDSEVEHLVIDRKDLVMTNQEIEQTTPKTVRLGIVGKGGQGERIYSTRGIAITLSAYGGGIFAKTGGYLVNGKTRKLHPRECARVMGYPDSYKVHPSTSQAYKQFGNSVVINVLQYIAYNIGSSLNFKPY
Description: as §1, §2
(§4) Afterwards, the reactions were stopped by heating to 80° C. for 10 min. […] Parallel control experiments were performed with phage lambda DNA in the absence of M.HhaI and in the presence of M.HhaI (278 ng).

M.TaqI-V21G = molecular target: T3, M.TaqI-V21G (Thermus aquaticus, UniProt P14385, V21G); test: DNA protection assay with M.TaqI variant V21G on phage lambda DNA; conditions: 1 μg phage lambda DNA, cofactor 300 μM, 60° C. for 4 h, then R.TaqI
T3 construct: made in house
T3 sequence (P14385 whole entry V21G): as the sequence (P14385 whole entry) above, with V21G counted along it
Description: as §1, §2, §3
Therefore, the codon for V21 was changed to a codon for glycine by standard PCR mutagenesis (Ho et al., (1989) Gene 77, 51-59) and the correct DNA sequence of the complete gene was verified by DNA sequencing. […] The DNA protection assay with the V21G variant was performed as described for the wild type (Example 3A.1).

M.SssI-Q142A = molecular target: T4, M.SssI-Q142A (Spiroplasma monobiae, UniProt P15840, Q142A); test: DNA protection assay with M.SssI variant Q142A on phage lambda DNA; conditions: 1 μg phage lambda DNA, cofactor 300 μM, 37° C. for 4 h, then R.BstUI
T4 construct: made in house
T4 sequence (P15840 whole entry Q142A): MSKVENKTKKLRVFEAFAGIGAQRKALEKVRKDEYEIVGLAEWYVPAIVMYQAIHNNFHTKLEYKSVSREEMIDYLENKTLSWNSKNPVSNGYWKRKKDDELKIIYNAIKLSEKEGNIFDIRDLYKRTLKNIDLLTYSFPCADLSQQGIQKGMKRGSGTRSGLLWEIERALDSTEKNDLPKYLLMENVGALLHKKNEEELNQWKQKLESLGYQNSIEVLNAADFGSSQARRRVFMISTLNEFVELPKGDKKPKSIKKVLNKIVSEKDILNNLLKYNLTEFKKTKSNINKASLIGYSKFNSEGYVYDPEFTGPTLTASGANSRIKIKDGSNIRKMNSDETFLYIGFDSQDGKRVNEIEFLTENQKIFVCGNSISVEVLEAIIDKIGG
Description: as §1
By varying the amounts of DNA methyltransferase, this assay is used to investigate the enzymatic activities of the different DNA methyltransferases with cofactors 3-9 and compare them to the enzymatic activities with the natural cofactor 1. […]
Two fold serial dilutions (20 μL) of M.SssI-Q142A (starting with 3300 ng, 73 pmol) in buffer (10 mM Tris hydrochloride, 50 mM sodium chloride, 1 mM dithiothreitol, pH 7.9), phage lambda DNA (1 μg, 31.3 fmol, 3113 5′-CG-3′ recognition sequences, […] recognition sequences, MBI Fermentas) and the natural cofactor 1 (300 μM) or cofactor analogs 5 and 7 (300 μM) were incubated at 37° C. for 4 h. […] Loading buffer (10 μL, 0.25% bromphenol blue, 30% glycerol) was added to each sample, and aliquots (15 μL) were analyzed for the degree of protection by agarose gel (1%) electrophoresis.

M.BcnIB = test: DNA protection assay with M.BcnIB (wild-type) on phage lambda DNA; conditions: 1.10 μg phage lambda DNA, cofactor 300 μM, 37° C. for 4 h, then R.BcnI; pH 7.4 (pH 6.0 for cofactor 6)
Description: as §1, §2
Afterwards the reactions were stopped by heating to 80° C. for 10 min. A solution (10 μL) containing R.BcnI restriction endonuclease (12 u, MBI Fermentas), bovine serum albumin (0.1 mg/mL) and buffer (33 mM Tris acetate, 66 mM potassium acetate, 26.5 mM magnesium chloride, pH 7.9) was added to each dilution and incubation at 37° C. was continued for 1 h. […] Parallel control experiments were performed with phage lambda DNA in the absence of M.BcnIB and in the presence of M.BcnIB (144 ng).

M.HhaI-Q82A = molecular target: T5, M.HhaI-Q82A (Haemophilus parahaemolyticus, UniProt P05102, Q82A); test: DNA protection assay with M.HhaI variant Q82A on phage lambda DNA; conditions: 1.16 μg phage lambda DNA, cofactor 300 μM, 37° C. for 4 h, then R.Hin6I; pH 7.4 (pH 6.0 for cofactor 6)
T5 construct: made in house
T5 sequence (P05102 whole entry Q82A): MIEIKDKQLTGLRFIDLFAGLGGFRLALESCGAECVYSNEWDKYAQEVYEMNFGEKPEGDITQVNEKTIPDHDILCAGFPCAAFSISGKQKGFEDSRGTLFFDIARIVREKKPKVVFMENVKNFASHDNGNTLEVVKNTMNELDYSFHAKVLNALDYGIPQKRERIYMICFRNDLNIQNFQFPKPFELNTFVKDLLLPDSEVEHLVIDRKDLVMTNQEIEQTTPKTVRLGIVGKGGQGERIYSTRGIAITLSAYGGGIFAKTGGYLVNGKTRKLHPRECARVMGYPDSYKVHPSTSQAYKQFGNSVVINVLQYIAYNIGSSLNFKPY
Description: as §1, §2, §4
The DNA protection assay with the M.HhaI variant Q82A (see Example 2B) was performed as described for the wild type enzyme (Example 3B.1).

M.TaqI [2] = molecular target: T1, M.TaqI; test: Modification of adenine-N6 in duplex oligodeoxynucleotide I.II by M.TaqI, nucleoside analysis by HPLC/ESI-MS; conditions: 37° C. over night, near-stoichiometric enzyme
Description: Transfer of the activated ethyl (CH2CH3), propyl (CH2CH2CH3), prop-2-enyl (CH2CHCH2), prop-2-ynyl group (CH2CCH), but-2-ynyl (CH2CCCH3), pent-2-ynyl (CH2CCCH2CH3) or benzyl group (CH2C6H5) from cofactors 3-9 by the DNA adenine-N6 methyltransferase M.TaqI, the DNA cytosine-C5 methyltransferase M.HhaI variant Q82A or the DNA cytosine-N4 methyltransferase M.BcnIB to DNA was first investigated using short duplex oligodeoxynucleotides as substrates. After enzymatic transfer the duplex oligodeoxynucleotides were enzymatically fragmented and the resulting modified nucleosides were analyzed by reversed-phase HPLC coupled with ESI-MS.
M.TaqI was denatured by heating to 95° C. for 10 min and removed by centrifugation ([…], 2 min). The modified duplex oligodeoxynucleotides I^Z—R-II were desalted by gel filtration (NAP-5 column, Amersham Biosciences, Freiburg, Germany), eluted with water (1 mL) and lyophilized.
The modified duplex oligodeoxynucleotides I^Z—R-II were dissolved in buffer (100 μL, 10 mM Tris hydrochloride, 10 mM magnesium chloride, 1 mM zinc acetate, pH 7.5) containing Nuclease PI (1500 u, Sigma, Taufkirchen, Germany) and calf intestine alkaline phosphatase (30 u, MBI Fermentas, St. Leon-Rot, Germany) and incubated at 37° C. for 4 h. Nucleosides were analyzed by reversed-phase HPLC (Symmetry-C18 5 μm, 100 Å, 250×4.6 mm, equipped with a Symmetry-C18 5 μm, 100 Å, 20×4.6 mm pre-column, Waters, Eschborn, Germany). Compounds were eluted with acetonitrile (5% for 7 min, followed by linear gradients to 6% in 15 min, to 35% in 8 min and to 70% in 2 min) in triethylammonium acetate buffer (10 mM, pH 7.0) at a flow of 1 mL/min and detected at 254 nm.
For HPLC-coupled ESI-MS measurements compounds were eluted with methanol (0% for 3 min, followed by a linear gradient to 100% in 22 min) in ammonium formate buffer (20 mM, pH 3.5). A post-column mobile phase modification (equal co-flow of 96% methanol, 4% formic acid) was used to enhance the detection efficiency of 2′-deoxyadenosine and its derivatives. Mass spectra were recorded in 200-370 m/z range.
The hemimethylated duplex oligodeoxynucleotide I.II (compare Scheme 5, Example 2A) was produced by mixing equal molar amounts of complementary single-stranded oligodeoxynucleotide I (5′-GCCGCTCGATGCCG-3′) (SEQ. ID NO. 1) and II (5′-CGGCATCGA^MeGCGGC-3′, A^Me=N6-methyl-2′-deoxyadenosine) (SEQ ID NO. 2) in water, heating at 85° C. for 5 min and slow cooling to room temperature. […] The solution was heated to 95° C. for 10 min, supplemented with Proteinase K and incubated at 55° C. for 2 h. Hydrolysis products were removed by gel filtration (G-25 column, Amersham Biosciences).
The obtained solution was treated with buffer ( 1/10 volume, 100 mM Tris hydrochlorid, 100 mM magnesium chloride, 10 mM zinc acetate, pH 7.5) containing Nuclease P1 (1.14 u, Sigma, Taufkirchen, Germany) and calf intestine alkaline phosphatase (18 u, MBI Fermentas), incubated at 42° C. for 4 h and passed through a Microcon YM-3 spin column (Amicon). Nucleosides were analyzed by reversed-phase HPLC (Discovery HS C18 75×2.1 mm, 3 μm, equipped with a Supelguard Discovery HS C18 20×2.1 mm, 5 μm, pre-column, Supelco, Germany) coupled with a mass spectrometric detector (HP 1100 series ESI-MS equipped with single quadruple). Compounds were eluted with methanol (0% for 3 min, followed by linear gradients to 20% in 15 min and to 80% in 2 min) in ammonium formate buffer (20 mM, pH 3.5) at a flow of 0.3 mL/min. For on-line mass spectrometric detection post-column mobile phase modification (equal co-flow of 96% methanol, 4% formic acid and 1 mM sodium hydroxide) was used to enhance the detection efficiency of 2′-deoxyadenosine, 2′-deoxycytidine and their derivatives. Mass spectra were recorded in 50-600 m/z range.

| Structure (SMILES) | specific activity of M.TaqI with the cofactor (M.TaqI [1]) | specific activity of M.HhaI with the cofactor (M.HhaI) | specific activity of M.TaqI-V21G with the cofactor (M.TaqI-V21G) | specific activity of M.SssI-Q142A with the cofactor (M.SssI-Q142A) | specific activity of M.BcnIB with the cofactor (M.BcnIB) | specific activity of M.HhaI-Q82A with the cofactor (M.HhaI-Q82A) | cofactor function for M.TaqI (transfer of group Z-R to adenine-N6) (M.TaqI [2]) |
| --- | --- | --- | --- | --- | --- | --- | --- |
| C[S+](CCC(N)C(=O)O)CC1OC(n2cnc3c(N)ncnc32)C(O)C1O (stereo not drawn) [Cofactor 1] | 40960 u/μg | 460 u/μg | 320 u/μg | 20 u/μg | 444 u/μg | 115 u/μg | – |
| Nc1ncnc2c1ncn2C1OC(C[S+](CCC(N)C(=O)O)Cc2ccccc2)C(O)C1O (mixture of isomers) [Cofactor 9] | 640 u/μg | – | 2560 u/μg | – | – | – | functions as a cofactor |
